No end group written: not given here.
Test system: Bacillus subtilis
Experiment: Standard minimum inhibitory concentration broth microdilution assay
Type: cell-based
Procedure: Standard minimum inhibitory concentration broth microdilution assays in the presence of BSA/acetic acid were performed in triplicate as described in [65] using peptides chemically synthesized to ≥95% purity (Proteogenix). Dilution series are based on net peptide content, calculated by multiplying the dry weight by %N and by purity. %N is a measure of the peptide (rather than salt) fraction in the lyophilized product, while purity, provided by the manufacturer, is the fraction of the peptide with the desired sequence among all supplied peptides.
To determine the AMP-activity of TPs, we performed the symmetrical experiment. Several chemically synthesized TPs, chosen for their variable proximity to Class I HA-RAMPs (Figure S8B), were used to challenge Bacillus subtilis in a standard assay, using magainin II as a positive control (Figure 7). […] A high sensitivity was deemed a useful feature for an antimicrobial assay in this proof-of-principle experiment, since we expected TPs to have a lower activity than bona fide AMPs as they have been selected for targeting and not for impeding microbial growth over the last 1.5 By.
B. subtilis was challenged with serial dilutions of synthetic peptides (See Table S7 for sequences): the Rattus norvegicus peptide hormone cholecystokinin-22, the C. reinhardtii tSP of lumenal 16.5 kDa protein, the HA-RAMP magainin II, Neurospora crassa mTP of ATP synthase F1β subunit and C. reinhardtii cTPs from RBCA and plastocyanin (PCY1) or mTPs from cytochrome c oxidase 12 kDa subunit (COX13) and Serine HydroxylMethyl Transferase 1 (SHMT1). (A) One dilution plate out of three performed replicates is shown to illustrate how the data was obtained. Transparent wells illustrate absence of growth. Red arrows point to the minimal peptide inhibiting concentration. (B) Minimum inhibitory concentrations (MIC) for each of the three replicate plates are reported in a table. TEXT PRINTED IN THE PICTURE: (B) cck-22: MIC (μg/ml) rep 1: >1000; MIC (μg/ml) rep 2: >1000; MIC (μg/ml) rep 3: >1000 | (B) TL16-tSP: MIC (μg/ml) rep 1: >1000; MIC (μg/ml) rep 2: >1000; MIC (μg/ml) rep 3: >1000 | (B) Magainin II: MIC (μg/ml) rep 1: 4; MIC (μg/ml) rep 2: 4; MIC (μg/ml) rep 3: 4 | (B) pF1β-mTP: MIC (μg/ml) rep 1: 8; MIC (μg/ml) rep 2: 4; MIC (μg/ml) rep 3: 8 | (B) RBCA-cTP: MIC (μg/ml) rep 1: 63; MIC (μg/ml) rep 2: 63; MIC (μg/ml) rep 3: 63 | (B) COX13-mTP: MIC (μg/ml) rep 1: 250; MIC (μg/ml) rep 2: 250; MIC (μg/ml) rep 3: 250 | (B) PCY1-cTP: MIC (μg/ml) rep 1: 1000; MIC (μg/ml) rep 2: 1000; MIC (μg/ml) rep 3: 1000 | (B) SHMT1-mTP: MIC (μg/ml) rep 1: 31; MIC (μg/ml) rep 2: 31; MIC (μg/ml) rep 3: 31

MIC (μg/ml) rep 1 (B. subtilis, broth microdilution in the presence of BSA/acetic acid, serial dilutions based on net peptide content, peptides synthesized to ≥95% purity, replicate plate 1 of 3): > 1000 µg/mL
MIC (μg/ml) rep 2 (B. subtilis, broth microdilution in the presence of BSA/acetic acid, serial dilutions based on net peptide content, peptides synthesized to ≥95% purity, replicate plate 2 of 3): > 1000 µg/mL
MIC (μg/ml) rep 3 (B. subtilis, broth microdilution in the presence of BSA/acetic acid, serial dilutions based on net peptide content, peptides synthesized to ≥95% purity, replicate plate 3 of 3): > 1000 µg/mL
Substance: cholecystokinin-22 (NLQGLDPSHRISDRDYMGWMDF; ends and bridges not checked; UniProt P01355 82-103, looked up) [cck-22, Rattus norvegicus small peptide hormone cholecystokinin-22, used as negative control]
inhibited growth (in words) (B. subtilis challenged with chemically synthesized peptides, negative controls): neither

Reference: article PMC7463930, “Evidence Supporting an Antimicrobial Origin of Targeting Peptides to Endosymbiotic Organelles” (Cells, 2020)
